Measurements: ChEMBL document CHEMBL6153169, “Menominin A and B: Cytotoxic Cyclodepsipeptides from the Freshwater Sponge-Associated Cyanobacterium Nostoc sp. UIC 10607” (J Nat Prod, 2025)
pIC50: −log10 of the molar value.

Columns and labels:
[1] = tested on: MDA-MB-435; experiment: Cytotoxicity against human MDA-MB-435 cells assessed as inhibition of cell growth incubated for 72 hrs by CellTiter 96 Aqueous One Solution based assay; assay type: functional; conditions: MDA-MB-435, 72 h
[2] = tested on: OVCAR-3; experiment: Cytotoxicity against human OVCAR-3 cells assessed as inhibition of cell growth incubated for 72 hrs by CellTiter 96 Aqueous One Solution based assay; assay type: functional; conditions: OVCAR-3, 72 h

| Structure (SMILES) | pIC50 [1] | pIC50 [2] |
| --- | --- | --- |
| CCCCCC[C@@H]1CCCC[C@@H](O)[C@H](C)C(=O)O[C@@H]([C@H](C)CC)C(=O)N[C@@H](Cc2ccccc2)C(=O)O1 | 5.28 | 5.51 |
| CCCCCC[C@@H]1CCCC[C@@H](O)[C@H](C)C(=O)O[C@@H](C(C)C)C(=O)N[C@@H](Cc2ccccc2)C(=O)O1 | 5.54 | 5.62 |
| CC(=O)O[C@H]1C(=O)[C@@]2(C)[C@H]([C@H](OC(=O)c3ccccc3)[C@]3(O)C[C@H](OC(=O)[C@H](O)[C@@H](NC(=O)c4ccccc4)c4ccccc4)C(C)=C1C3(C)C)[C@]1(OC(C)=O)CO[C@@H]1C[C@@H]2O [PACLITAXEL] | 9.28 | 8.66 |
